Columns and labels:
[1] = Induction of progranulin secretion in mouse BV-2 cells; assay type: functional, cell-based
[2] = target: Voltage-gated inwardly rectifying potassium channel KCNH2 (Homo sapiens, UniProt Q12809); experiment: Inhibition of human ERG; assay type: toxicity
[3] = Apparent permeability across apical to basolateral side in MDCK-MDR1 cells; assay type: ADME, cell-based, Canis lupus familiaris; settings: dog
[4] = Efflux ratio of apparent permeability in MDCK-MDR1 cells; assay type: ADME, cell-based, Canis lupus familiaris; settings: dog
[5] = Protein binding in mouse assessed as unbound fraction; assay type: ADME
[6] = Protein binding in human assessed as unbound fraction; assay type: ADME
[7] = Protein binding in mouse brain assessed as unbound fraction; assay type: ADME, tissue-based
[8] = Metabolic stability in mouse hepatocytes assessed as half life measured upto 120 mins; assay type: ADME, cell-based, Hepatocyte
[9] = Metabolic stability in mouse hepatocytes assessed as intrinsic clearance; assay type: ADME, cell-based, Hepatocyte
[10] = Metabolic stability in human hepatocytes assessed as half life measured upto 120 mins; assay type: ADME, cell-based, Hepatocyte
[11] = Metabolic stability in human hepatocytes assessed as intrinsic clearance; assay type: ADME, cell-based, Hepatocyte
[12] = Half life in mouse at 10 mg/kg, po; assay type: ADME, organism-based; settings: in vivo
[13] = Half life in mouse at 1 mg/kg, iv; assay type: ADME, organism-based; settings: in vivo
[14] = Unbound Cmax in mouse at 10 mg/kg, po or 1 mg/kg, iv; assay type: ADME, organism-based; settings: in vivo
[15] = Unbound brain to plasma partition coefficient in mouse at 10 mg/kg, po or 1 mg/kg, iv after 8 hrs; assay type: ADME, organism-based; settings: read-out: K(p,uu,brain)
[16] = Bioavailability in mouse at 10 mg/kg, po or 1 mg/kg, iv; assay type: ADME, organism-based; settings: in vivo
[17] = Clearance in mouse at 10 mg/kg, po or 1 mg/kg, iv; assay type: ADME, organism-based; settings: in vivo
[18] = Volume of distribution at steady state in mouse at 10 mg/kg, po or 1 mg/kg, iv; assay type: ADME, organism-based; settings: in vivo

Sequence of Voltage-gated inwardly rectifying potassium channel KCNH2 (Q12809 whole entry): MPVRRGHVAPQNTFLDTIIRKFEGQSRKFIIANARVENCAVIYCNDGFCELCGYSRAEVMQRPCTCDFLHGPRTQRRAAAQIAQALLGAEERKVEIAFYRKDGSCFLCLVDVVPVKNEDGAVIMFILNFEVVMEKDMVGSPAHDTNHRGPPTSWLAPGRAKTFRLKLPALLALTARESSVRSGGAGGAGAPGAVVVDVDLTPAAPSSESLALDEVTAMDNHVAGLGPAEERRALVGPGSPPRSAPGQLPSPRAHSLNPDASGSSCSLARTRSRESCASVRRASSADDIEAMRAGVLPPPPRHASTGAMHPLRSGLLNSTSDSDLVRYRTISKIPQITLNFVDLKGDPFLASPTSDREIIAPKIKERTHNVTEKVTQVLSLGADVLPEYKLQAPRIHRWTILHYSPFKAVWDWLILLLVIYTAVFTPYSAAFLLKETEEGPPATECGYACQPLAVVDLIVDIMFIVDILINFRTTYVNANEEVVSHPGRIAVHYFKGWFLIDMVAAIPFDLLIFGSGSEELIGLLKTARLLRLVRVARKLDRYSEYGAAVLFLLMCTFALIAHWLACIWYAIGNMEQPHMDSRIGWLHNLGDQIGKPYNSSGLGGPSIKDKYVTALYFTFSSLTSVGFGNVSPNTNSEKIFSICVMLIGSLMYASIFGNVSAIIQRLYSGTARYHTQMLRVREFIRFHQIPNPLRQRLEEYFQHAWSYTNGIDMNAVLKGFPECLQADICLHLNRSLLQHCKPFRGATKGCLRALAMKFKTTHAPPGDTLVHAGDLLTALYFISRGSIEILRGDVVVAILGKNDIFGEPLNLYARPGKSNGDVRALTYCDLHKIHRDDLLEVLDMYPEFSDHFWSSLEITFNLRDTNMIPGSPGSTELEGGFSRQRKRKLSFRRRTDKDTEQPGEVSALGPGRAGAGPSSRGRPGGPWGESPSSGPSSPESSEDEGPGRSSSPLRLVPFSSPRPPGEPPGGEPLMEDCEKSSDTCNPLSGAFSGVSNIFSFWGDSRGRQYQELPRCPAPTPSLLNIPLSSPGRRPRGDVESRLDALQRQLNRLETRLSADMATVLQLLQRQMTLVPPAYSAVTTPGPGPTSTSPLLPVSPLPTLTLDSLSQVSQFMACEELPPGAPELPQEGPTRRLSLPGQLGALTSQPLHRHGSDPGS

| Compound | EC50 [1] | IC50 [2] | further results |
| --- | --- | --- | --- |
| CN1CC[C@@]2(CN=C(N3CCc4ccccc4[C@@H]3c3ccc(F)cc3)O2)C1 | 176 nM | 1.7 µM | – |
| Fc1ccc([C@H]2c3ccccc3CCN2C2=NC[C@@H]3CNCC[C@@H]3O2)cc1 | 57 nM | 21 µM | Papp A→B [3]: 1.4 ×10⁻⁶ cm/s; efflux ratio [4]: 9.04; fraction unbound [5]: 0.253; fraction unbound [6]: 0.375; fraction unbound [7]: 0.009 |
| Fc1ccc([C@H]2c3ccccc3CCN2C2=N[C@H]3CNC[C@H]3CO2)cc1 | 275 nM | 3.3 µM | – |
| N[C@H]1CC[C@@]2(COC(N3CCc4ccccc4[C@@H]3c3ccc(F)cc3)=N2)C1 | 204 nM | – | – |
| Fc1ccc([C@H]2c3ccccc3CCN2C2=N[C@H](C3CN4CCC3CC4)CO2)cc1 (stereo not given in full) | 126 nM | – | – |
| Fc1ccc([C@H]2c3ccccc3CCN2C2=N[C@@]3(CCCNC3)CO2)cc1 | 38 nM | – | – |
| Fc1ccc([C@H]2c3ccccc3CCN2C2=NC[C@@H](C3CN4CCC3(F)CC4)O2)cc1 (stereo not given in full) | 382 nM | – | – |
| Fc1ccc([C@H]2c3ccccc3CCN2C2=N[C@@H]3CNC[C@@H]3O2)cc1 | 674 nM | – | – |
| CN1CCCC2(COC(N3CCc4ccccc4[C@@H]3c3ccc(F)cc3)=N2)C1 (stereo not given in full) | 796 nM | – | – |
| Fc1ccc([C@H]2c3ccccc3CCN2C2=NC[C@H](C3CNC3)O2)cc1 | 109 nM | 2.2 µM | – |
| N[C@H]1C[C@@]2(COC(N3CCc4ccccc4[C@@H]3c3ccc(F)cc3)=N2)C1 | 639 nM | – | – |
| Fc1ccc([C@H]2c3ccccc3CCN2C2=NC[C@@]3(CCCNC3)O2)cc1 | 502 nM | – | – |
| OCCN1CC[C@@H]2OC(N3CCc4ccccc4[C@@H]3c3ccc(F)cc3)=NC[C@@H]2C1 | 37 nM | – | – |
| NC[C@H]1C[C@]2(CN=C(N3CCc4ccccc4[C@@H]3c3ccc(F)cc3)O2)C1 | 206 nM | – | – |
| Fc1ccc([C@H]2c3ccccc3CCN2C2=NC[C@H]([C@@H]3CCNC3)O2)cc1 | 208 nM | 6.7 µM | – |
| Fc1ccc([C@H]2c3ccccc3CCN2C2=N[C@@H](C3CN4CCC3CC4)CO2)cc1 (stereo not given in full) | 231 nM | – | – |
| Fc1ccc([C@H]2c3ccccc3CCN2C2=NC3(CCNCC3)CO2)cc1 | 157 nM | – | – |
| CN1CCC2(CC1)COC(N1CCc3ccccc3[C@@H]1c1ccc(F)cc1)=N2 | 7030 nM | – | – |
| Fc1ccc([C@H]2c3ccccc3CCN2C2=NC[C@]3(CCCNC3)O2)cc1 | 64 nM | – | – |
| Fc1ccc([C@H]2c3ccccc3CCN2C2=NC[C@@H]3CNC[C@@H]3O2)cc1 | 950 nM | – | – |
| Fc1ccc([C@H]2c3ccccc3CCN2C2=NC[C@]3(CCNC3)O2)cc1 | 21 nM | – | – |
| N[C@H]1CC[C@]2(CN=C(N3CCc4ccccc4[C@@H]3c3ccc(F)cc3)O2)C1 | 110 nM | – | – |
| CN(C)[C@H]1C[C@@]2(CN=C(N3CCc4ccccc4[C@@H]3c3ccc(F)cc3)O2)C1 | 209 nM | 7 µM | – |
| OCCN1CC[C@@]2(CN=C(N3CCc4ccccc4[C@@H]3c3ccc(F)cc3)O2)C1 | 318 nM | 4.4 µM | Papp A→B [3]: 2.2 ×10⁻⁶ cm/s; efflux ratio [4]: 1.52; fraction unbound [5]: 0.091; fraction unbound [6]: 0.151; fraction unbound [7]: 0.042; half-life [8]: 31 min; CLH [9]: 22.25 µL/min/mg; half-life [10]: > 120 min; CLH [11]: < 14.7 µL/min/mg; half-life [12]: 198 min; half-life [13]: 126 min; fCmax [14]: 8 nM; Kp uu at 8 h [15]: 3.84; bioavailability [16]: 6.1%; CL [17]: 7.74 L/h/kg; Vdss [18]: 18.5 L/kg |
| Fc1ccc([C@H]2c3ccccc3CCN2C2=NC[C@@H]3CNCC[C@H]3O2)cc1 | 35 nM | 3.1 µM | – |
| N[C@H]1CC[C@@]2(CN=C(N3CCc4ccccc4[C@@H]3c3ccc(F)cc3)O2)C1 | 127 nM | – | – |
| Fc1ccc([C@H]2c3ccccc3CCN2C2=NC[C@H]3CNCC[C@H]3O2)cc1 | 335 nM | – | – |
| CN(C)[C@H]1CC[C@]2(CN=C(N3CCc4ccccc4[C@@H]3c3ccc(F)cc3)O2)C1 | 137 nM | 7.8 µM | – |

| Compound | EC50 [1] | IC50 [2] | further results |
| --- | --- | --- | --- |
| Fc1ccc([C@H]2c3ccccc3CCN2C2=NC[C@H]3CNC[C@H]3O2)cc1 | 111 nM | 5.1 µM | – |
| Fc1ccc([C@H]2c3ccccc3CCN2C2=NC[C@H](C3CN4CCC3(F)CC4)O2)cc1 (stereo not given in full) | > 10000 nM | – | – |
| Fc1ccc([C@H]2c3ccccc3CCN2C2=NC[C@@H]3NCC[C@H]3O2)cc1 | 659 nM | – | – |
| Fc1ccc([C@H]2c3ccccc3CCN2C2=NC[C@H]3NCC[C@H]3O2)cc1 | 423 nM | – | – |
| CN1CC[C@]2(CN=C(N3CCc4ccccc4[C@@H]3c3ccc(F)cc3)O2)C1 | 69 nM | 0.51 µM | – |
| Fc1ccc([C@H]2c3ccccc3CCN2C2=NC[C@@H]([C@H]3CCNC3)O2)cc1 | 244 nM | 3.9 µM | – |
| CN(C)[C@H]1CC[C@@]2(CN=C(N3CCc4ccccc4[C@@H]3c3ccc(F)cc3)O2)C1 | 237 nM | 3.6 µM | – |
| OCCN1CC[C@H]2OC(N3CCc4ccccc4[C@@H]3c3ccc(F)cc3)=NC[C@H]2C1 | 230 nM | – | – |
| Fc1ccc([C@H]2c3ccccc3CCN2C2=NC[C@H](C3CN4CCC3CC4)O2)cc1 (stereo not given in full) | 387 nM | 0.68 µM | – |
| Fc1ccc([C@H]2c3ccccc3CCN2C2=NC[C@@H](C3CNC3)O2)cc1 | 97 nM | 6.2 µM | – |
| Fc1ccc([C@H]2c3ccccc3CCN2C2=NC[C@H]([C@H]3CCNC3)O2)cc1 | 85 nM | 2.3 µM | – |
| Fc1ccc([C@H]2c3ccccc3CCN2C2=N[C@@H](C3(F)CNC3)CO2)cc1 | 119 nM | 10 µM | – |
| OCCCN1CC[C@@]2(CN=C(N3CCc4ccccc4[C@@H]3c3ccc(F)cc3)O2)C1 | 181 nM | 4.8 µM | – |
| N[C@@H]1CC[C@]2(CN=C(N3CCc4ccccc4[C@@H]3c3ccc(F)cc3)O2)C1 | 236 nM | – | – |
| Fc1ccc([C@H]2c3ccccc3CCN2C2=NC[C@@H]3NCC[C@@H]3O2)cc1 | 455 nM | – | – |
| CN(C)[C@H]1C[C@]2(CN=C(N3CCc4ccccc4[C@@H]3c3ccc(F)cc3)O2)C1 | 3580 nM | – | – |
| Fc1ccc([C@H]2c3ccccc3CCN2C2=NC[C@@H]([C@@H]3CCNC3)O2)cc1 | 55 nM | 5.4 µM | – |
| Fc1ccc([C@H]2c3ccccc3CCN2C2=N[C@]3(CCCNC3)CO2)cc1 | 85 nM | – | – |
| Fc1ccc([C@H]2c3ccccc3CCN2C2=NC[C@@]3(CCNC3)O2)cc1 | 38 nM | 4.8 µM | Papp A→B [3]: 3 ×10⁻⁶ cm/s; efflux ratio [4]: 3.09; fraction unbound [7]: 0.041; half-life [8]: > 120 min; CLH [9]: < 68.2 µL/min/mg; half-life [10]: > 120 min; CLH [11]: < 14.7 µL/min/mg; half-life [12]: 714 min; half-life [13]: 936 min; bioavailability [16]: 74%; CL [17]: 2.99 L/h/kg; Vdss [18]: 57.2 L/kg |
| N[C@H]1CC[C@]2(COC(N3CCc4ccccc4[C@@H]3c3ccc(F)cc3)=N2)C1 | 160 nM | – | – |
| Fc1ccc([C@H]2c3ccccc3CCN2C2=NCC3(CCNCC3)O2)cc1 | 59 nM | – | – |
| NC[C@H]1C[C@@]2(CN=C(N3CCc4ccccc4[C@@H]3c3ccc(F)cc3)O2)C1 | 993 nM | – | – |
| N[C@H]1C[C@@]2(CN=C(N3CCc4ccccc4[C@@H]3c3ccc(F)cc3)O2)C1 | 522 nM | – | – |
| Fc1ccc([C@H]2c3ccccc3CCN2C2=NC[C@H](C3(F)CNC3)O2)cc1 | 192 nM | 11 µM | – |
| Fc1ccc([C@H]2c3ccccc3CCN2C2=N[C@H]3CNC[C@H]3O2)cc1 | 517 nM | – | – |
| N[C@@H]1CC[C@@]2(CN=C(N3CCc4ccccc4[C@@H]3c3ccc(F)cc3)O2)C1 | 119 nM | 8.8 µM | – |
| Fc1ccc([C@H]2c3ccccc3CCN2C2=NC[C@H]3CNCC[C@@H]3O2)cc1 | 1550 nM | – | – |
